The nature of data set [1]: Stability of pirenzepine in solution. The settings on record: pH 5. The class given is physicochemical.
For data set [2] the following is noted: solution in up to 2% strength, topical ocular, adult volunteers; cited from earlier work.
Another data set relates to chick model of myopia. Conditions: subconjunctival injections; cited from earlier work.
Data set [3] concerns myopia. Conditions: cited from earlier work.
Data set [4] deals with myopia. Conditions: tree shrews; cited from earlier work.
Data set [5] relates to myopia. The settings on record: stump-tailed monkeys; cited from earlier work.
The test system of data set [6] is myopia. Conditions: chicks; cited from earlier work.

The structures appear in SMILES notation. Where a name gives a salt, the structure may show the parent alone. Read-outs that look alike come from different tables or passages of the source.

The text below walks through data of patent US20060188576A1, “Pirenzepine ophthalmic gel” (priority 2001, published 2006).

For `CN1CCN(CC(=O)N2c3ccccc3C(=O)Nc3cccnc32)CC1` [Pirenzepine, 5,11-dihydro-11-[(4-methyl-1-piperazinyl)acetyl]-6H pyrido [2,3-b][1,4]-benzodiazepin-6-one dihydrochloride monohydrate], the stability in solution result in data set [1] is recorded as “stable in solution especially at pH 5”. Moreover, in data set [2], the “comfort and systemic effects” value was “comfortable and without systemic effects”. Moreover, the axial eye growth result in the data set with chick model of myopia is reported as “attenuated axial eye growth”.

As to `CCN(Cc1ccncc1)C(=O)C(CO)c1ccccc1` (stereo not drawn) [tropicamide], the “effectiveness as myopia therapy” value in the data set with myopia [3] (mild cycloplegic agent, several studies) was “effective in a number of studies but failed in other studies”.

`CN1[C@@H]2CC[C@H]1C[C@@H](OC(=O)C(CO)c1ccccc1)C2` (stereo partly drawn) [atropine]: the axial eye growth entry in the data set with chick model of myopia is recorded as “attenuated axial eye growth”. The development of myopia entry with myopia [3] (humans), with myopia [4], with myopia [5] and with myopia [6] was “prevents the development of myopia” in each case.
